Data reported in patent US10307350B2, “Morphogenetically active amorphous calcium polyphosphate nanoparticles for therapeutic applications” (NanotecMARIN GmbH, priority 2014, dated 2019).

Columns and labels:
Type in all cases: cell-based, mouse
[1] = tested on: MC3T3 cells; test: Microscopic density of attached cells after 72 h; conditions: single component: aCa-polyP-NP 3 μg/ml or retinol 10 μM
Experimental: (§1) Mouse calvaria cells MC3T3-E1 cells (ATCC-CRL-2593) are used for the experiments and cultivated in a-MEM (Gibco—Invitrogen) containing 20% fetal calf serum [FCS] (Gibco). The medium contains 2 mM L-glutamine, 1 mM Na-pyruvate and 50 μg/ml of gentamycin. […] Reaching 80% confluency, the cells are detached using trypsin/EDTA and continuously subcultured at a density of 5·10^3 cells/ml. The cells are seeded at a density of 5·10^3 cells/well. Medium/serum change was every 3 d.
This synergistically-acting effect of the two test components can also be followed microscopically. In the absence of any of the components the density of the MC3T3 cells after the 72 h incubation is only low. […] Likewise low is the number of cells onto the plastic surface if 10 μM retinol is added.

[2] = tested on: MC3T3 cells; test: Cell proliferation / cell viability XTT assay; conditions: retinol 0.3 to 30 μM, absence of aCa-polyP-NP, 72 h
Experimental: as §1
The aCa-polyP-NP are added at the indicated concentration to the cultures, usually 3 μg/ml. Retinol is added in parallel; it is dissolved at 1 mg/ml ethanol and then diluted in DMSO [dimethyl sulfoxide] at the indicated concentrations. […]
Cell proliferation can be determined, for example, by a colorimetric method based on the tetrazolium salt XTT (Cell Proliferation Kit II; Roche). The absorbance is determined at […] and subtracted form the background values (500 nm). In the experiments described in Examples, the viable cells have been determined after 72 h.

[3] = tested on: collagen type III (COL-III); test: Collagen expression RT-qPCR in MC3T3-E1 cells, collagen type III; conditions: single component: 3 μM retinol alone, or polyP sample in the absence of retinol; untreated 0.17±0.02
Experimental: Mouse calvaria cells MC3T3-E1 cells (ATCC-CRL-2593) are used for the experiments and cultivated in a-MEM (Gibco-Invitrogen) containing 20% fetal calf serum [FCS] (Gibco). The medium contains 2 mM L-glutamine, 1 mM Na-pyruvate and 50 μg/ml of gentamycin. […] Reaching 80% confluency, the cells are detached using trypsin/EDTA and continuously subcultured at a density of 5·10^3 cells/ml. The cells are seeded at a density of 5·10^3 cells/well. Medium/serum change was every 3 d. The aCa-polyP-NP are added at the indicated concentration to the cultures, usually 3 μg/ml. Retinol is added in parallel; it is dissolved at 1 mg/ml ethanol and then diluted in DMSO [dimethyl sulfoxide] at the indicated concentrations. […], Wang […], Kropf […]. […] Acta Biomaterialia 2011; 7:2661-2671) is studied in parallel. […] After a 5 d incubation period the cells were collected and subjected to RT-qPCR analyses. […] The effect of 3 μM retinol on Na-polyP and on different nanoparticles as well as on the retinol/nanospheres was tested in a comparative way. The expression level of collagen type III was determined by RT-qPCR (FIG. 11). The expression values are correlated to the expression of the house-keeping gene GAPDH. […] Then the ratios between the levels in the cells, exposed to retinol or the nanoparticles/nanospheres alone or together, have been calculated and plotted.

CC1=C(/C=C/C(C)=C/C=C/C(C)=C/CO)C(C)(C)CCC1 [retinol, all-trans retinol]
density of the cells attached to the substrate [1]: low
growth rate of the MC3T3 cells [2]: did not change significantly
collagen type III expression level correlated to GAPDH [3]: 0.25±0.03
